In ChEMBL document CHEMBL3046148, “Synthesis and biological evaluation of resveratrolcoumarin hybrid compounds as potential antitumor agents” (Med Chem Res, 2013) one finds IC50 data, which are given here for 14 compounds.

Common to all, as to format: functional, cell-based
In test [1] the test system is K562. In words: Cytotoxicity against Homo sapiens (human) K562 cells assessed as growth inhibition after 48 hr by MTT assay.
Test [2] is described as follows: Cytotoxicity against Homo sapiens (human) HCT28 cells assessed as growth inhibition after 48 hr by MTT assay. (Tetrazolium assays rely on reduction of a dye to a coloured formazan, in cell work by metabolically active cells.)
Test [3] deals with MCF7. In words: Cytotoxicity against Homo sapiens (human) MCF7 cells assessed as growth inhibition after 48 hr by MTT assay.
The mark [4] stands for this setting: Homo sapiens, 48 h, read-out: IC50.
Setting [5] is: Homo sapiens, MCF7, 48 h, read-out: IC50.
The mark [6] stands for this setting: Homo sapiens, K562, 48 h, read-out: IC50.

As a reminder, the IC50 is the concentration that gives 50% inhibition.

On to `COc1cc(/C=C\c2ccc3oc(=O)c(-c4ccc(OC)c(OC)c4)cc3c2)cc(OC)c1` [CIS-3-(3,4-DIMETHOXYPHENYL)-6-(3,5-DIMETHOXYSTYRYL)COUMARIN], for which the IC50 result in test [1] (k562) was “Not Active”; in test [2] (setting [4]), 13.5 µM; in test [3] (setting [5]), 9 µM.
For the compound `COc1ccc(/C=C\c2ccc3oc(=O)c(-c4ccc(OC)c(OC)c4)cc3c2)cc1` [CIS-3-(3,4-DIMETHOXYPHENYL)-6-(4-METHOXYSTYRYL)COUMARIN], the IC50 entry in test [1] (k562), in test [2] and in test [3] (mcf7) was “Not Active” in each case.
Regarding `COc1ccc(-c2cc3cc(/C=C\c4ccccc4)ccc3oc2=O)cc1OC` [CIS-3-(3,4-DIMETHOXYPHENYL)-6-STYRYLCOUMARIN], the concentration for half-maximal inhibition (IC50) entry in test [1] (k562), in test [2] and in test [3] (mcf7) was “Not Active” throughout.
With `COc1ccc(-c2cc3cc(/C=C\c4ccccc4)ccc3oc2=O)cc1` [CIS-3-(4-METHOXYPHENYL)-6-STYRYLCOUMARIN], the IC50 entry in test [1] (k562), in test [2] and in test [3] (mcf7) was “Not Active” throughout.
As for `COc1ccc(-c2cc3cc(/C=C\c4cc(OC)cc(OC)c4)ccc3oc2=O)cc1` [CIS-6-(3,5-DIMETHOXYSTYRYL)-3-(4-METHOXYPHENYL)COUMARIN], the IC50 result in test [1] (k562), in test [2] and in test [3] (mcf7) was “Not Active” throughout.
Take `COc1cc(/C=C\c2ccc3oc(=O)c(-c4ccccc4)cc3c2)cc(OC)c1` [CIS-6-(3,5-DIMETHOXYSTYRYL)-3-PHENYLCOUMARIN]: the IC50 entry in test [1] (k562), in test [2] and in test [3] (mcf7) was “Not Active” each time.
As to `COc1ccc(/C=C\c2ccc3oc(=O)c(-c4ccccc4)cc3c2)cc1` [CIS-6-(4-METHOXYSTYRYL)-3-PHENYLCOUMARIN], the figures for the IC50 in test [1] (setting [6]), in test [2] (setting [4]) and in test [3] (setting [5]) were 3.79 µM, 10.7 µM and 10.9 µM, respectively.
As for `COc1cc(/C=C/c2ccc3oc(=O)c(-c4ccc(OC)c(OC)c4)cc3c2)cc(OC)c1` [TRANS-3-(3,4-DIMETHOXYPHENYL)-6-(3,5-DIMETHOXYSTYRYL)COUMARIN], the 50% inhibitory concentration (IC50) result in test [1] (k562) is “Not Active”; in test [2] (setting [4]) it was 10.1 µM; in test [3] (setting [5]), 7.41 µM.
Take `COc1ccc(/C=C/c2ccc3oc(=O)c(-c4ccc(OC)c(OC)c4)cc3c2)cc1` [TRANS-3-(3,4-DIMETHOXYPHENYL)-6-(4-METHOXYSTYRYL)COUMARIN]: the IC50 in test [1] (setting [6]) worked out at 8.76 µM; in test [2] (setting [4]) it was 7.14 µM; in test [3] (setting [5]), 4.23 µM.
Take `COc1ccc(-c2cc3cc(/C=C/c4ccccc4)ccc3oc2=O)cc1OC` [TRANS-3-(3,4-DIMETHOXYPHENYL)-6-STYRYLCOUMARIN]: the IC50 entry in test [1] (k562) was “Not Active”; in test [2] (setting [4]) it was 10.8 µM; in test [3] (setting [5]), 14.5 µM.
Consider `COc1ccc(-c2cc3cc(/C=C/c4cc(OC)cc(OC)c4)ccc3oc2=O)cc1` [TRANS-6-(3,5-DIMETHOXYSTYRYL)-3-(4-METHOXYPHENYL)COUMARIN], for which the IC50 in test [1] (setting [6]) amounted to 11.5 µM; in test [2] (setting [4]), 19.2 µM; in test [3] (setting [5]), 11.2 µM.
Turning to `COc1cc(/C=C/c2ccc3oc(=O)c(-c4ccccc4)cc3c2)cc(OC)c1` [TRANS-6-(3,5-DIMETHOXYSTYRYL)-3-PHENYLCOUMARIN], the values for the IC50 entry in test [1] (k562), in test [2] and in test [3] (setting [5]) were “Not Active”, “Not Active” and 13.5 µM, respectively.
As for `COc1ccc(/C=C/c2ccc3oc(=O)c(-c4ccccc4)cc3c2)cc1` [TRANS-6-(4-METHOXYSTYRYL)-3-PHENYLCOUMARIN], the IC50 in test [1] (setting [6]) amounted to 13 µM; in test [2] (setting [4]), 3.78 µM; in test [3] (setting [5]), 7.32 µM.
Regarding `COc1ccc(/C=C/c2cc(OC)cc(OC)c2)cc1` [TRISMETHOXYRESVERATROL], the figures for the IC50 in test [1] (setting [6]), in test [2] (setting [4]) and in test [3] (setting [5]) were 6.39 µM, 4.83 µM and 8.41 µM, respectively.
